Assay results published in PubChem BioAssay (NCI).
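Exposure lasted 48 hours, with cells grown in 96-well plates and compounds tested at five concentrations. GI50 = concentration required for 50% inhibition of growth. Definition used: TGI = concentration required for complete inhibition of growth.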

How the values were obtained:
Experiment in all cases: NCI anticancer screen, dose series, 48 h
HOP-62 NSCLC = tested on: HOP-62 NSCLC
RXF 393 renal = tested on: RXF 393 renal
LOX IMVI melanoma = tested on: LOX IMVI melanoma
M14 melanoma = tested on: M14 melanoma
SNB-75 CNS = tested on: SNB-75 CNS
SN12C renal = tested on: SN12C renal
SR leukemia = tested on: SR leukemia
A549 NSCLC = tested on: A549 NSCLC
MALME-3M melanoma = tested on: MALME-3M melanoma
DU-145 prostate = tested on: DU-145 prostate
HCT-15 colon = tested on: HCT-15 colon
OVCAR-4 ovarian = tested on: OVCAR-4 ovarian
NCI-H23 lung = tested on: NCI-H23 lung
SK-OV-3 ovarian = tested on: SK-OV-3 ovarian
SF-268 CNS = tested on: SF-268 CNS
ACHN renal = tested on: ACHN renal
COLO 205 colon = tested on: COLO 205 colon
MDA-MB-231 breast = tested on: MDA-MB-231 breast
U251 CNS = tested on: U251 CNS
K-562 leukemia = tested on: K-562 leukemia
SK-MEL-2 melanoma = tested on: SK-MEL-2 melanoma
CCRF-CEM leukemia = tested on: CCRF-CEM leukemia
UACC-257 melanoma = tested on: UACC-257 melanoma
IGROV1 ovarian = tested on: IGROV1 ovarian
CAKI-1 renal = tested on: CAKI-1 renal
NCI-H460 lung = tested on: NCI-H460 lung
MOLT-4 leukemia = tested on: MOLT-4 leukemia
T-47D breast = tested on: T-47D breast
NCI-H226 lung = tested on: NCI-H226 lung
NCI/ADR-RES ovarian = tested on: NCI/ADR-RES ovarian
HCC-2998 colon = tested on: HCC-2998 colon
HCT-116 colon = tested on: HCT-116 colon
HT29 colon = tested on: HT29 colon
TK-10 renal = tested on: TK-10 renal
OVCAR-5 ovarian = tested on: OVCAR-5 ovarian
SK-MEL-5 melanoma = tested on: SK-MEL-5 melanoma
SF-539 CNS = tested on: SF-539 CNS
SF-295 CNS = tested on: SF-295 CNS
MDA-MB-435 = tested on: MDA-MB-435
EKVX NSCLC = tested on: EKVX NSCLC
HL-60(TB) leukemia = tested on: HL-60(TB) leukemia
UACC-62 melanoma = tested on: UACC-62 melanoma
BT-549 breast = tested on: BT-549 breast
A498 renal = tested on: A498 renal
HS 578T breast = tested on: HS 578T breast
NCI-H522 lung = tested on: NCI-H522 lung
PC-3 prostate = tested on: PC-3 prostate
SW-620 colon = tested on: SW-620 colon
SNB-19 CNS = tested on: SNB-19 CNS
SK-MEL-28 melanoma = tested on: SK-MEL-28 melanoma
MCF7 breast = tested on: MCF7 breast
786-0 renal = tested on: 786-0 renal
HOP-92 NSCLC = tested on: HOP-92 NSCLC
UO-31 renal = tested on: UO-31 renal
OVCAR-8 ovarian = tested on: OVCAR-8 ovarian
KM12 colon = tested on: KM12 colon

Question: Which results are given for `CCn1c(SCC(=O)Nc2cccc(C(=O)/C=C/c3cc(OC)c(OC)c(OC)c3)c2)nc2ccccc2c1=O`?
Answer: GI50 (HOP-62 NSCLC): 2.46 µM; TGI (HOP-62 NSCLC): 6.78 µM; GI50 (RXF 393 renal): 1.56 µM; TGI (RXF 393 renal): 7.82 µM; GI50 (LOX IMVI melanoma): 1.18 µM; TGI (LOX IMVI melanoma): 2.63 µM; GI50 (M14 melanoma): 2.9 µM; TGI (M14 melanoma): > 100 µM; GI50 (SNB-75 CNS): 2.65 µM; TGI (SNB-75 CNS): > 100 µM; GI50 (SN12C renal): 3.86 µM; TGI (SN12C renal): > 100 µM; GI50 (SR leukemia): 1.29 µM; TGI (SR leukemia): > 100 µM; GI50 (A549 NSCLC): 3.05 µM; TGI (A549 NSCLC): 30.8 µM; GI50 (MALME-3M melanoma): 6.52 µM; TGI (MALME-3M melanoma): > 100 µM; GI50 (DU-145 prostate): 2.36 µM; TGI (DU-145 prostate): 6.12 µM; GI50 (HCT-15 colon): 2.27 µM; TGI (HCT-15 colon): 9.62 µM; GI50 (OVCAR-4 ovarian): 5.52 µM; TGI (OVCAR-4 ovarian): > 100 µM; GI50 (NCI-H23 lung): 2.63 µM; TGI (NCI-H23 lung): 8.58 µM; GI50 (SK-OV-3 ovarian): 16.2 µM; TGI (SK-OV-3 ovarian): 76.3 µM; GI50 (SF-268 CNS): 4.13 µM; TGI (SF-268 CNS): > 100 µM; GI50 (ACHN renal): 2.29 µM; TGI (ACHN renal): 6.61 µM; GI50 (COLO 205 colon): 3.91 µM; TGI (COLO 205 colon): 89.1 µM; GI50 (MDA-MB-231 breast): 5.26 µM; TGI (MDA-MB-231 breast): > 100 µM; GI50 (U251 CNS): 2.35 µM; TGI (U251 CNS): 6.46 µM; GI50 (K-562 leukemia): 3.19 µM; TGI (K-562 leukemia): > 100 µM; GI50 (SK-MEL-2 melanoma): 3.3 µM; TGI (SK-MEL-2 melanoma): 15.3 µM; GI50 (CCRF-CEM leukemia): 2.57 µM; TGI (CCRF-CEM leukemia): > 100 µM; GI50 (UACC-257 melanoma): 12.5 µM; TGI (UACC-257 melanoma): > 100 µM; GI50 (IGROV1 ovarian): 1.8 µM; TGI (IGROV1 ovarian): 4.31 µM; GI50 (CAKI-1 renal): 3.75 µM; TGI (CAKI-1 renal): > 100 µM; GI50 (NCI-H460 lung): 2.6 µM; TGI (NCI-H460 lung): 11.7 µM; GI50 (MOLT-4 leukemia): 3.55 µM; TGI (MOLT-4 leukemia): > 100 µM; GI50 (T-47D breast): 5.08 µM; TGI (T-47D breast): > 100 µM; GI50 (NCI-H226 lung): 1.91 µM; TGI (NCI-H226 lung): 5.55 µM; GI50 (NCI/ADR-RES ovarian): 2.89 µM; TGI (NCI/ADR-RES ovarian): 15.4 µM; GI50 (HCC-2998 colon): 2 µM; TGI (HCC-2998 colon): 4.49 µM; GI50 (HCT-116 colon): 1.73 µM; TGI (HCT-116 colon): 3.75 µM; GI50 (HT29 colon): 2.07 µM; TGI (HT29 colon): 4.39 µM; GI50 (TK-10 renal): 7.08 µM; TGI (TK-10 renal): > 100 µM; GI50 (OVCAR-5 ovarian): 2.36 µM; TGI (OVCAR-5 ovarian): 5.65 µM; GI50 (SK-MEL-5 melanoma): 9.79 µM; TGI (SK-MEL-5 melanoma): 32 µM; GI50 (SF-539 CNS): 2.3 µM; TGI (SF-539 CNS): 5.77 µM; GI50 (SF-295 CNS): 4.1 µM; TGI (SF-295 CNS): 20.6 µM; GI50 (MDA-MB-435): 3.12 µM; TGI (MDA-MB-435): 48.2 µM; GI50 (EKVX NSCLC): 4.26 µM; TGI (EKVX NSCLC): 56.7 µM; GI50 (HL-60(TB) leukemia): 3.38 µM; TGI (HL-60(TB) leukemia): > 100 µM; GI50 (UACC-62 melanoma): 4.43 µM; TGI (UACC-62 melanoma): 76.7 µM; GI50 (BT-549 breast): 2.66 µM; TGI (BT-549 breast): 9.31 µM; GI50 (A498 renal): 2.15 µM; TGI (A498 renal): 9.11 µM; GI50 (HS 578T breast): 3.64 µM; TGI (HS 578T breast): > 100 µM; GI50 (NCI-H522 lung): 2.86 µM; TGI (NCI-H522 lung): 9.29 µM; GI50 (PC-3 prostate): 5.09 µM; TGI (PC-3 prostate): > 100 µM; GI50 (SW-620 colon): 2.48 µM; TGI (SW-620 colon): 7.05 µM; GI50 (SNB-19 CNS): 3.89 µM; TGI (SNB-19 CNS): > 100 µM; GI50 (SK-MEL-28 melanoma): 3.66 µM; TGI (SK-MEL-28 melanoma): > 100 µM; GI50 (MCF7 breast): 2.3 µM; TGI (MCF7 breast): > 100 µM; GI50 (786-0 renal): 1.94 µM; TGI (786-0 renal): 3.92 µM; GI50 (HOP-92 NSCLC): 3.17 µM; TGI (HOP-92 NSCLC): > 100 µM; GI50 (UO-31 renal): 1.7 µM; TGI (UO-31 renal): 6.42 µM; GI50 (OVCAR-8 ovarian): 3.16 µM; TGI (OVCAR-8 ovarian): > 100 µM; GI50 (KM12 colon): 1.89 µM; TGI (KM12 colon): 4.52 µM
